Changes are numbered by the printed parent chain.
Legend:
FAM86A [1] = biological target: T1, FAM86A (Homo sapiens, UniProt Q96G04, I256Y/M257Y/E296Y); assay: X-ray crystal structure, […] A; settings: co-crystallised with 1 mM SAH, ammonium citrate pH 7.0, PEG 3350, 5 mM TCEP, 12 C; SAM-binding site of MTase domain
T1 construct: gene EEF2KMT; full-length, surface-entropy-reduction triple mutant; N-terminal His6-MBP tag removed by TEV; E. coli BL21(DE3) RIL; residues 1-5 and 127-133 not traced
T1 sequence (Q96G04 1-330 I256Y/M257Y/E296Y): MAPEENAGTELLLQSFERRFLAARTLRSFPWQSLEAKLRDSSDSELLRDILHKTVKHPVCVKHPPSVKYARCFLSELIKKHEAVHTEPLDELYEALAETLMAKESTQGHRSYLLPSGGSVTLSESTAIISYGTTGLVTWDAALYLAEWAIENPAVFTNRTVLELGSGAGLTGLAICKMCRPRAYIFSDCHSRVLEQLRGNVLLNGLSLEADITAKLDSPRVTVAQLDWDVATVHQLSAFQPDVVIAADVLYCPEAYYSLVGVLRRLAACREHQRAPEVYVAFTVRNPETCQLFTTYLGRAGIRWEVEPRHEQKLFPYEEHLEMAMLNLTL

FAM86A [2] = biological target: T2, FAM86A (Homo sapiens, UniProt Q96G04); assay: in vitro methylation, autoradiography; format: biochemical; settings: labelled compound; methyl donor; co-substrate recombinant human EEF2 (Lys525); Tris-HCl pH 8.0, 20 mM KCl, 5 mM MgCl2, 10% glycerol, 30 C overnight
T2 construct: gene EEF2KMT; full-length; E. coli BL21
T2 sequence (Q96G04 1-330): T1 sequence (Q96G04 1-330 I256Y/M257Y/E296Y) with Y256I, Y257M, Y296E
Procedure: in vitro methylation, autoradiography on FA[…] | incubating recombinant, purified FA[…] with recombinant, purified EEF2 in the presence of radiolabeled SAM

FAM86A [3] = biological target: T3, FAM86A (Homo sapiens, UniProt Q96G04, A97R); assay: in vitro methylation, autoradiography; format: biochemical; settings: labelled compound; methyl donor; co-substrate recombinant human EEF2 (Lys525); Tris-HCl pH 8.0, 20 mM KCl, 5 mM MgCl2, 10% glycerol, 30 C overnight
T3 construct: gene EEF2KMT; full-length; E. coli BL21
T3 sequence (Q96G04 1-330 A97R): T1 sequence (Q96G04 1-330 I256Y/M257Y/E296Y) with A97R, Y256I, Y257M, Y296E

| SMILES | X-ray crystal structure, 3.3 A (FAM86A [1]) | in vitro methylation, autoradiography (FAM86A [2]) | in vitro methylation, autoradiography (FAM86A [3]) |
| --- | --- | --- | --- |
| Nc1ncnc2c1ncn2[C@@H]1O[C@H](CSCC[C@H](N)C(=O)O)[C@@H](O)[C@H]1O [SAH, S-adenosyl homocysteine] | structure determination of full-length FAM86A in complex with cofactor–by-product S-adenosyl homocysteine (SAH) | – | – |
| C[S+](CC[C@H](N)C(=O)O)C[C@H]1O[C@@H](n2cnc3c(N)ncnc32)[C@H](O)[C@@H]1O (stereo partly drawn) [SAM, S-adenosyl methionine] | – | incubating recombinant, purified FAM86A with recombinant, purified EEF2 in the presence of radiolabeled SAM | the activity of purified FAM86A (A97R) on purified EEF2 was similar to that of wildtype |
